In general, IC50 refers to the concentration needed to halve the response being measured.

Each structure is given as a SMILES string. Where only a bound is given, the exact number is not on record here.

We go through 17 molecules from US20250346592A1 (Celgene Corporation, priority 2022, published 2025).

The target in test [1] is T1, hPAD4 enzyme (Homo sapiens (Human), UniProt Q9UM07). In words: RFMS1 assay (RapidFire mass spectrometry, BAEE substrate). Type of test: biochemical. The conditions noted are these: 5 nM hPAD4, 250 μM BAEE, 30 min preincubation at 37° C., 90 min reaction; read-out: RFMS 1 IC50. The procedure: Compounds were solubilized in 100% DMSO to achieve a 10 mM compound concentration. Compound stock solutions were stored at RT. A series of dilutions were prepared in DMSO and mixed 8 times with 20 μL mixing volume. Final top concentration of compound in the assay is 50 μM. Final assay conditions were as follows: • Reaction volume: 26 μl • Assay buffer: 25 mM hepes, pH 7.5, 5 mM NaCl, 1 mM DTT, 0.2 mg/ml BSA, 0.01% CHAPS, 50 µM Calcium, and 5 μM TPEN • Final concentrations: 5 nM hPAD4 enzyme, 250 µM BAEE, and 0.5% DMSO • Total incubation time: 30 mins compound and enzyme preincubation at 37° C., 90 min enzyme/substrate reaction, 30 min reaction with phenyl glyoxal at 37° C. • Stop solution: 40 μl 5% TCA in ACN • 0.13 μL of compound solution was added to 13 μL of 10 nM PAD4 in assay buffer. After […] min 13 μl of 500 µM of BAEE was added in 25 mM hepes, pH 7.5, 5 mM NaCl, 1 mM DTT, 0.2 mg/ml BSA, 0.01% CHAPS, 50 μM Calcium, 5 μM TPEN was added and the reaction incubated for 90 min at 37° C. The enzymatic reaction was quenched by addition of 15 μl of 6.1N TCA, 100% Final Concentration is 20%, 35 μl of 8.5 mM phenyl glyoxal (final concentration 4 mM) is then added and the reaction is incubated for 30 min at 37° C.
T1 sequence (Q9UM07 whole entry): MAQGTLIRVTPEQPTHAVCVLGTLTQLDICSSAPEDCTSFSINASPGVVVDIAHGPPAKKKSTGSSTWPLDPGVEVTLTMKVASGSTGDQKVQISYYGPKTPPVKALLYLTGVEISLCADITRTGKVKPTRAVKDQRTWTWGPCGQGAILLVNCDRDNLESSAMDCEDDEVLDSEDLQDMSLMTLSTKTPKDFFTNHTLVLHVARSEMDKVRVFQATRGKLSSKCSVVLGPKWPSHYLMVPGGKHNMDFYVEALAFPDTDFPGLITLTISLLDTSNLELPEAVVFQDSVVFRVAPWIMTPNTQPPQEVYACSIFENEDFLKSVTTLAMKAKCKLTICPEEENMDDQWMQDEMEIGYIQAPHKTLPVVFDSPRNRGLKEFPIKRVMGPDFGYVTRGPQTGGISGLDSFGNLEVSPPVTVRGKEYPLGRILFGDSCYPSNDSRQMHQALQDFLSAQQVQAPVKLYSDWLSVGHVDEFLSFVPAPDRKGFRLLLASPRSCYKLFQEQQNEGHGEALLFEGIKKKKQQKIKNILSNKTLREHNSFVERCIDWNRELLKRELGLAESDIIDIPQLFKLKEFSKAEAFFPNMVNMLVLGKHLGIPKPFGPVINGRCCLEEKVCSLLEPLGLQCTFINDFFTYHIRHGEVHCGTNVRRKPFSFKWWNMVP
After 30 minutes the plates are spun down to remove all precipitate. The enzyme reaction was quenched with an equal volume of methanol containing internal standard (modified citrulline). Samples were loaded onto the Rapid Fire RF300 system (Agilent) wherein they were first sipped for 1000 ms and then directly loaded to a C18 separations cartridge using a mixture of acetonitrile containing 0.01% formic acid for 3000 ms desalting. The flow rate of the mobile phase was 1.5 ml/min. Once the samples were eluted from the cartridge, a mobile phase of acetonitrile containing 0.01% formic acid was used to move the samples into the mass spectrometer for 4000 ms at a flow rate of 1.25 ml/min/Sciex API5500 triple quadrupole mass spectrometer (Applied Biosystems) equipped with ESI was used to analyze the peptidyl citrulline and internal standard ions.
MRM transition of product and internal standard were monitored at m/z 424.5 to 350.4 and m/z 293 to 247 respectively. The dwell time for each transition was set at 200 ms, and the ESI voltage was used at 5500 with a source temperature of 400° C. Extracted ion peaks for each transition were integrated using the Rapid Fire Integrator software. Peak area of analyte was normalized with internal standard.).
Compounds having an activity designated as “A” provided an IC50≤10 nM; compounds having an activity designated as “B” provided an IC50 11-100 nM; compounds having an activity designated as “C” provided an IC50 101-500 nM; compounds having an activity designated as “D” provided an IC50 501-1000 nM; compounds having an activity designated as “E” provided an IC50>1000 nM.

Test [2] concerns the target T1, hPAD4 enzyme. In words: RFMS2 assay (RapidFire mass spectrometry, TSTGGRQGSHH peptide substrate). Type of test: biochemical. The conditions noted are these: 35 nM recombinant human PAD4, 500 μM TSTGGRQGSHH peptide, 30 minutes at room temperature; read-out: RFMS 2 IC50. The gist of the method: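 IC50 derived from RapidFire LC-MS/MS (positive ESI MRM) of substrate versus product after a 30 min room-temperature reaction stopped with 10% formic acid. Reaction contained 35 nM human PAD4, 500 μM peptide, 2 mM CaCl2, 5 mM DTT at pH 7.4, and compounds diluted 3-fold from 20 μM.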

Regarding `Cc1cc(C(N)=O)c(F)cc1-c1ccc2cc(-c3nc4cc5c(cc4n3C)CCN(C[C@H](N)CF)C5=O)n(CC3CC3)c2n1` [Example 60, (S)-4-(2-(6-(2-amino-3-fluoropropyl)-1-methyl-5-oxo-5,6,7,8-tetrahydro-1H-imidazo[4,5-g]isoquinolin-2-yl)-1-(cyclopropylmethyl)-1H-pyrrolo[2,3-b]pyridin-6-yl)-2-fluoro-5-methylbenzamide], the IC50 at hPAD4 enzyme [1] was in the range of 11 to 100 nM; on hPAD4 enzyme [2], 101 to 500 nM.

In the case of `COc1cc(F)cc2cc(-c3nc4cc5c(cc4n3C)CCN(C[C@H](N)CF)C5=O)n(CC3CC3)c12` [Example 65, (S)-6-(2-amino-3-fluoropropyl)-2-(1-(cyclopropylmethyl)-5-fluoro-7-methoxy-1H-indol-2-yl)-1-methyl-1,6,7,8-tetrahydro-5H-imidazo[4,5-g]isoquinolin-5-one], the 50% inhibitory concentration (IC50) was 11 to 100 nM at hPAD4 enzyme [1] and 101 to 500 nM at hPAD4 enzyme [2].

Take `COC1CCN(c2ccc3cc(-c4nc5cc6c(cc5n4C)CCN(C[C@H](N)CF)C6=O)n(CC4CC4)c3c2)CC1` [Example 68, (S)-6-(2-amino-3-fluoropropyl)-2-(1-(cyclopropylmethyl)-6-(4-methoxypiperidin-1-yl)-1H-indol-2-yl)-1-methyl-1,6,7,8-tetrahydro-5H-imidazo[4,5-g]isoquinolin-5-one]: the results for the concentration for half-maximal inhibition (IC50) at hPAD4 enzyme [1] and at hPAD4 enzyme [2] were 11 to 100 nM and more than 1000 nM, respectively.

For the molecule `COCCn1c(-c2nc3cc4c(cc3n2C)CCN(C[C@H](N)CF)C4=O)cc2cccc(OC)c21` [Example 102, (S)-6-(2-amino-3-fluoropropyl)-2-(7-methoxy-1-(2-methoxyethyl)-1H-indol-2-yl)-1-methyl-1,6,7,8-tetrahydro-5H-imidazo[4,5-g]isoquinolin-5-one], the half-maximal inhibitory concentration (IC50) at hPAD4 enzyme [1] and on hPAD4 enzyme [2] was 101 to 500 nM each time.

`COc1cccc2cc(-c3nc4cc5c(cc4n3C)CCN(C[C@H](N)CF)C5=O)n(Cc3cc(C)no3)c12` [Example 113, (S)-6-(2-amino-3-fluoropropyl)-2-(7-methoxy-1-((3-methylisoxazol-5-yl)methyl)-1H-indol-2-yl)-1-methyl-1,6,7,8-tetrahydro-5H-imidazo[4,5-g]isoquinolin-5-one]: the IC50 at hPAD4 enzyme [1] lay in the range of 11 to 100 nM; on hPAD4 enzyme [2], 101 to 500 nM.

With `COc1cccc2cc(-c3nc4cc5c(cc4n3C)CCN(C[C@H](N)CF)C5=O)n(Cc3ncco3)c12` [Example 119, (S)-6-(2-amino-3-fluoropropyl)-2-(7-methoxy-1-(oxazol-2-ylmethyl)-1H-indol-2-yl)-1-methyl-1,6,7,8-tetrahydro-5H-imidazo[4,5-g]isoquinolin-5-one], the half-inhibitory concentration (IC50) on hPAD4 enzyme [1] is 11 to 100 nM; at hPAD4 enzyme [2], 101 to 500 nM.

Turning to `COc1cccc2cc(-c3nc4cc5c(cc4n3C)CCN(C[C@H](N)CF)C5=O)n(Cc3nc(C)co3)c12` [Example 124, (S)-6-(2-amino-3-fluoropropyl)-2-(7-methoxy-1-((4-methyloxazol-2-yl)methyl)-1H-indol-2-yl)-1-methyl-1,6,7,8-tetrahydro-5H-imidazo[4,5-g]isoquinolin-5-one], the IC50 at hPAD4 enzyme [1] lay in the range of 11 to 100 nM; on hPAD4 enzyme [2], 101 to 500 nM.

As to `COc1cccc2cc(-c3nc4cc5c(cc4n3C)CCN(C[C@H](N)CF)C5=O)n(Cc3nccs3)c12` [Example 127, (S)-6-(2-amino-3-fluoropropyl)-2-(7-methoxy-1-(thiazol-2-ylmethyl)-1H-indol-2-yl)-1-methyl-1,6,7,8-tetrahydro-5H-imidazo[4,5-g]isoquinolin-5-one], the 50% inhibitory concentration (IC50) on hPAD4 enzyme [1] and at hPAD4 enzyme [2] was 101 to 500 nM in each case.

On to `COc1cccc2cc(-c3nc4cc5c(cc4n3C)CCN(C[C@H](N)CF)C5=O)n(Cc3cc(N)no3)c12` [Example 146, (S)-6-(2-amino-3-fluoropropyl)-2-(1-((3-aminoisoxazol-5-yl)methyl)-7-methoxy-1H-indol-2-yl)-1-methyl-1,6,7,8-tetrahydro-5H-imidazo[4,5-g]isoquinolin-5-one], for which the results for the 50% inhibitory concentration (IC50) at hPAD4 enzyme [1] and at hPAD4 enzyme [2] were 11 to 100 nM and 101 to 500 nM, respectively.

On to `Cn1c(-c2cc3cccc(OCCn4cncn4)c3n2CC2CC2)nc2cc3c(cc21)CCN(C[C@H](N)CF)C3=O` [Example 150, (S)-2-(7-(2-(1H-1,2,4-triazol-1-yl)ethoxy)-1-(cyclopropylmethyl)-1H-indol-2-yl)-6-(2-amino-3-fluoropropyl)-1-methyl-1,6,7,8-tetrahydro-5H-imidazo[4,5-g]isoquinolin-5-one], for which the figures for the IC50 at hPAD4 enzyme [1] and on hPAD4 enzyme [2] were not above 10 nM and 101 to 500 nM, respectively.

Regarding `Cc1nccn1CCOc1cccc2cc(-c3nc4cc5c(cc4n3C)CCN(C[C@H](N)CF)C5=O)n(CC3CC3)c12` [Example 165, (S)-6-(2-amino-3-fluoropropyl)-2-(1-(cyclopropyl-methyl)-7-(2-(2-methyl-1H-imidazol-1-yl)ethoxy)-1H-indol-2-yl)-1-methyl-1,6,7,8-tetrahydro-5H-imidazo [4,5-g]isoquinolin-5-one], the half-inhibitory concentration (IC50) on hPAD4 enzyme [1] lay in the range of 11 to 100 nM; at hPAD4 enzyme [2] it was 101 to 500 nM.

As for `Cn1cncc1CCOc1cccc2cc(-c3nc4cc5c(cc4n3C)CCN(C[C@H](N)CF)C5=O)n(CC3CC3)c12` [Example 169, (S)-6-(2-amino-3-fluoropropyl)-2-(1-(cyclopropyl-methyl)-7-(2-(1-methyl-1H-imidazol-5-yl)ethoxy)-1H-indol-2-yl)-1-methyl-1,6,7,8-tetrahydro-5H-imidazo [4,5-g]isoquinolin-5-one], the IC50 was 11 to 100 nM at hPAD4 enzyme [1] and 101 to 500 nM at hPAD4 enzyme [2].

For `Cn1c(-c2cc3cccc(OCc4ccn[nH]4)c3n2CC2CC2)nc2cc3c(cc21)CCN(C[C@H](N)CF)C3=O` [Example 174, (S)-2-(7-((1H-pyrazol-5-yl)methoxy)-1-(cyclopropyl-methyl)-1H-indol-2-yl)-6-(2-amino-3-fluoropropyl)-1-methyl-1,6,7,8-tetrahydro-5H-imidazo[4,5-g] isoquinolin-5-one], the concentration for half-maximal inhibition (IC50) at hPAD4 enzyme [1] and at hPAD4 enzyme [2] was 11 to 100 nM each time.

Turning to `Cn1c(-c2cc3cccc(OCCn4ccnn4)c3n2CC2CC2)nc2cc3c(cc21)CCN(C[C@H](N)CF)C3=O` [Example 181, (S)-2-(7-(2-(1H-1,2,3-triazol-1-yl)ethoxy)-1-(cyclopropylmethyl)-1H-indol-2-yl)-6-(2-amino-3-fluoropropyl)-1-methyl-1,6,7,8-tetrahydro-5H-imidazo[4,5-g]isoquinolin-5-one], the IC50 at hPAD4 enzyme [1] is not above 10 nM; at hPAD4 enzyme [2], 11 to 100 nM.

Take `CN1CC(COc2cccc3cc(-c4nc5cc6c(cc5n4C)CCN(C[C@H](N)CF)C6=O)n(CC4CC4)c23)CC1=O` (stereo partly drawn) [Example 184, 6-((S)-2-amino-3-fluoropropyl)-2-(1-(cyclopropylmethyl)-7-((1-methyl-5-oxopyrrolidin-3-yl)methoxy)-1H-indol-2-yl)-1-methyl-1,6,7,8-tetrahydro-5H-imidazo[4,5-g]isoquinolin-5-one]: the 50% inhibitory concentration (IC50) on hPAD4 enzyme [1] was in the range of 11 to 100 nM; at hPAD4 enzyme [2], 101 to 500 nM.

Consider `Cn1c(-c2cc3cccc(OCCn4cnnn4)c3n2CC2CC2)nc2cc3c(cc21)CCN(C[C@H](N)CF)C3=O` [Example 186, (S)-2-(7-(2-(1H-tetrazol-1-yl)ethoxy)-1-(cyclopropylmethyl)-1H-indol-2-yl)-6-(2-amino-3-fluoropropyl)-1-methyl-1,6,7,8-tetrahydro-5H-imidazo[4,5-g]isoquinolin-5-one], for which the half-maximal inhibitory concentration (IC50) on hPAD4 enzyme [1] was not above 10 nM; on hPAD4 enzyme [2], 11 to 100 nM.

Regarding `Cn1c(-c2cc3cccc(OC[C@@H]4CNC(=O)C4)c3n2CC2CC2)nc2cc3c(cc21)CCN(C[C@H](N)CF)C3=O` [Example 190, 6-((S)-2-amino-3-fluoropropyl)-2-(1-(cyclopropylmethyl)-7-(((S)-5-oxopyrrolidin-3-yl)methoxy)-1H-indol-2-yl)-1-methyl-1,6,7,8-tetrahydro-5H-imidazo[4,5-g]isoquinolin-5-one], the figures for the IC50 on hPAD4 enzyme [1] and at hPAD4 enzyme [2] were not above 10 nM and 11 to 100 nM, respectively.
